Laboratory results taken from patent US8648116B2, “Derivatives of N-(arylamino) sulfonamides including polymorphs as inhibitors of MEK as well as compositions, methods of use and methods for preparing the same” (Ardea Biosciences, Inc., priority 2005, dated 2014).
Where two headings read alike, the source gives them in different places.

Legend:
[1] = system: COLO 205 human colon carcinoma xenografts; experiment: Activity against subcutaneous COLO 205 xenografts (Example 118)
Method: Dosing solutions of Compound A were prepared fresh daily by dissolving the required amount of compound in 100% Cremophor EL, and then diluting ten-fold with normal saline. Final dosing solution concentrations were 2.5, 5, 10, or 20 mg/mL, in order to provide respective doses of 25, 50, 100 or 200 mg/kg in a dosing volume of 10 mL/kg. Paclitaxel (Natural Pharmaceuticals, Inc.) was prepared fresh on each day of dosing in a vehicle consisting of 5% ethanol and 5% Cremophor EL in 90% D5W (5% EC vehicle).
Group 1 received the formulation vehicle (10% Cremophor EL in saline), and served as the tumor growth control group. Group 2 received the reference drug paclitaxel administered on its optimal schedule in nude mice (30 mg/kg i.v. qod×5). […] All doses were scaled to the weight of the animal (0.2 mL per 20 grams body weight).
Tumors were measured twice each week using calipers. […] Therefore endpoint tumor size of 800 mm^3 was used for analysis of tumor growth delay (TGD).
[formula] where b is the intercept and m is the slope of the line obtained by linear regression of a log-transformed tumor growth data set.

[2] = system: Complete Freund's Adjuvant induced arthritis; experiment: Rat adjuvant arthritis inflammation assay; assay type: in vivo, rats; conditions: 20 mg/kg orally for 5 days
Method: In the rat adjuvant induced arthritis model, Complete Freund's Adjuvant (CFA) is injected into the right hind paw of rats to induce pathologies similar to rheumatoid arthritis in humans. Compound A was administered orally for 5 consecutive days at 2, 6, and 20 mg/kg. Dexamethasone at 5 m g/kg was also administered orally for 5 days. Enbrel at 10 mg/kg was administered by subcutaneous injection on days 1 and 4. CFA was injected into the right hind paw one hour after the first dose on day 1. […] Polyarthritis was scored as the presence of swelling in front paws, tail, nose or ear.

[3] = system: pERK in brain; experiment: MEK inhibition (pERK, Western blot) against plasma concentration, brain; assay type: in vivo, nu/nu mice
Method: Human tumors were implanted in nu/nu mice. Compound A was administered orally for 14 days once tumors were approximately 100 mm^3 in size. Tumor growth inhibition (TGI) was determined after 14 days of treatment as the reduction in the size of tumors in treated groups versus vehicle controls. The time to endpoint (TTE) was calculated as the time for the tumor to reach the specified endpoint volume or the last day of the study, whichever came first. Treatment outcome was determined from percent tumor growth delay (% TGD), defined as the percent increase in median TTE of treated versus vehicle-treated control mice. Animals were also monitored for regression responses. Levels of pERK in tumors and brain were determined by Western blots and correlated with plasma levels of Compound A for the pharmacodynamic/pharmacokinetic study. A number of tumor models were evaluated with different doses and dosing regimens. […] The effect of different dosing regimens was evaluated in A375 xenografts.
Female nu/nu mice implanted with Colo205 tumor cells were given a single dose of vehicle or Compound A at 2.5, 5, 10, or 25 mg/kg. Compound levels were determined in plasma samples and pERK levels were determined in tumor and brain samples collected at 2, 6, 12, and 24 hr post-dose. […]

[4] = Concentration-time profiles after a single dose of capsules; design: species or system human cancer patients; conditions: human, in vivo, oral, capsules of example 95A, Day 1; for AUC(0-t): read-out: AUC0-12hr
Method: Human cancer patients were administered a single dose of the 1 mg or 10 mg capsule composition described above in example 95A. For a 2 mg dose, patients were given 2×1 mg capsules; for a 4 mg dose, patients were given 4×1 mg capsules; for a 6 mg dose, patients were given 6×1 mg capsules; for a 10 mg dose, patients were given 1×10 mg capsule; for a 20 mg dose, patients were given 2×10 mg capsules.
The concentration-time profiles were monitored and are shown in FIG. 4 and in the table below: […]

[5] = Pharmacokinetics in cancer patients following multiple doses; conditions: 6 mg
[6] = Group 3, 50 mg/kg po qd × 14 per the 39th table (25 mg/kg p.o. qd×14), n=9
[7] = Group 4, 25 mg/kg po bid × 14 first day 1 dose per the 39th table (50 mg/kg p.o. qd×14), n=9
[8] = Group 5, 25 mg/kg po qd × 14 per the 39th table (100 mg/kg p.o. qd×14), n=9
[9] = Group 6, 12.5 mg/kg po bid × 14 first day 1 dose per the 39th table (200 mg/kg p.o., discontinued after six days), n=9

Q: What does the source list for `COc1cc(F)c(F)c(Nc2ccc(I)cc2F)c1NS(=O)(=O)C1(C[C@H](O)CO)CC1` [Compound A]?
A: TGD ([1]; 25 mg/kg p.o. qd×14): 3%; TGD ([1]; 50 mg/kg p.o. qd×14): 46%; TGD ([1]; 100 mg/kg p.o. qd×14): maximum TGD possible; relation to the MTD ([1]; 200 mg/kg p.o. once daily): above the MTD; TR deaths ([1]; 200 mg/kg p.o., dosing stopped after Day 6): 3/9; Median TTE ([1]; Group 3, 25 mg/kg p.o. qd×14): 47.9 days; % TGD [1, 6]: 17%; MTV (n) Day 74 [1, 6]: 0 (3); Median TTE [1, 6]: 47.9 days; No of CR [1, 6]: 0; No of NTR (non-treatment-related deaths) [1, 6]: 2; No of PR [1, 6]: 1; No of TFS [1, 6]: 0; No of TR (treatment-related deaths) [1, 6]: 2; SS (statistical significance, logrank vs Group 1) [1, 6]: ns; T − C [1, 6]: 6.9 days; % TGD [1, 7]: 44%; MTV (n) Day 74 [1, 7]: 195 (1); Median TTE [1, 7]: 59.1 days; No of CR [1, 7]: 0; No of NTR (non-treatment-related deaths) [1, 7]: 0; No of PR [1, 7]: 4; No of TFS [1, 7]: 0; No of TR (treatment-related deaths) [1, 7]: 0; SS (statistical significance, logrank vs Group 1) [1, 7]: ns; T − C [1, 7]: 18.1 days; Median TTE ([1]; Group 4, 50 mg/kg p.o. qd×14): 59.1 days; % TGD [1, 8]: 80%; MTV (n) Day 74 [1, 8]: 320 (5); Median TTE [1, 8]: 74.0 days; No of CR [1, 8]: 0; No of NTR (non-treatment-related deaths) [1, 8]: 0; No of PR [1, 8]: 4; No of TFS [1, 8]: 0; No of TR (treatment-related deaths) [1, 8]: 1; SS (statistical significance, logrank vs Group 1) [1, 8]: ns; T − C [1, 8]: 33.0 days; Median TTE ([1]; Group 5, 100 mg/kg p.o. qd×14): 74.0 days; % TGD [1, 9]: 41%; MTV (n) Day 74 [1, 9]: 0 (3); Median TTE [1, 9]: 57.8 days; No of CR [1, 9]: 3; No of NTR (non-treatment-related deaths) [1, 9]: 2; No of PR [1, 9]: 1; No of TFS [1, 9]: 0; No of TR (treatment-related deaths) [1, 9]: 2; T − C [1, 9]: 16.8 days; animals without front paw swelling (polyarthritis scoring) [2]: 2 of 6; animals without swelling in the tail (polyarthritis scoring) [2]: 4 of 6; inhibition of paw swelling ([2]; acute and delayed phases): significant reduction in swelling; pERK formation in brain ([3]; Colo205 xenograft mice, pharmacodynamic/pharmacokinetic study): minimal inhibition; EC50 ([3]; Mus musculus, plasma concentration, Colo205-bearing nu/nu mice, single dose 2.5-25 mg/kg): > 5 µM; Cmax ([4]; 2 mg, 2 mg dose): 0.111 ng/mL; Tmax ([4]; 2 mg, 2 mg dose): 2 h; Cmax ([4]; 4 mg, 4 mg dose): 0.292 ng/mL; AUC(0-t) ([4]; 2 mg dose): 0.7 ng·h/mL; AUC(0-t) ([4]; 4 mg dose): 2.26 ng·h/mL

Q: With `COc1cc(F)c(F)c(Nc2ccc(I)cc2F)c1NS(=O)(=O)C1(C[C@H](O)CO)CC1` as the molecule, how does the “Rac AUCτ (accumulation index)” value [5] read?
A: Its value is 2.07.
